According to patent publication EP0067666A1, “Salts of antimicrobial naphthyridine and quinoline compounds and their production” (priority 1981, dated 1982):
≈ marks a conversion by molar mass, not a printed value. Where two headings read alike, the source gives them in different places.

Tests used:
[1] = Lyophilization of the salts; format: physicochemical
Description: The unpredictable characteristics of the salts prepared from Compounds A and B are clear from consideration of the results reported in Table 1. These characteristics were considered in view of the necessary requirements (a-f) outlined above for preparing a useful parenteral dosage form. […] From the data in Table 1, the lactate salts appear to be useful; however, lactic acid cannot be consistently obtained in a satisfactory grade in presently available commercial forms and is therefore not useful. The choline and sodium salts were ruled out based on the pH of their respective solutions.

[2] = Two-way crossover oral trial, drug blood levels by disk agar diffusion microbiological assay; format: in vivo; details: Beagle dogs, single 25 mg/kg (parent compound equivalent) oral dose in hard gelatine capsules; compound B compared with compound D as the glutamate
Procedure: Drug blood levels were determined by a disk agar diffusion microbiological assay.

Staph. aureus UC-76 = experiment: Antibacterial activity, MIC; format: cell-based; details: based on content of compound B
Pseudo. aeruginosa UI-18 = experiment: Antibacterial activity, MIC; format: cell-based; details: based on content of compound B
[3] = system: Klebsiella pneumoniae MGH-2; experiment: Acute mouse protection test; format: in vivo; details: subcutaneous, single dose given at time of challenge, compound B series
Klebs. pneumoniae MGH-2 = experiment: Antibacterial activity, MIC; format: cell-based; details: Klebsiella pneumoniae, MGH2, based on content of compound B
Strep. faecalis MGH-2 = experiment: Antibacterial activity, MIC; format: cell-based; details: Enterococcus faecalis, MGH2, based on content of compound B
[4] = system: Staphylococcus aureus UC-76; experiment: Acute mouse protection test; format: in vivo; details: single dose given at time of challenge, compound B series
Proteus retgeri M 1771 = experiment: Antibacterial activity, MIC; format: cell-based; details: based on content of compound B
Strep. pneumoniae SV-1 = experiment: Antibacterial activity, MIC; format: cell-based; details: Streptococcus pneumoniae, SV1, based on content of compound B
Staph. aureus H 228 = experiment: Antibacterial activity, MIC; format: cell-based; details: Staphylococcus aureus, H228, based on content of compound B
Strep. pyogenes C-203 = experiment: Antibacterial activity, MIC; format: cell-based; details: based on content of compound B
Entero cloacae MA 2646 = experiment: Antibacterial activity, MIC; format: cell-based; details: based on content of compound B
Escherichia coli Vogel = experiment: Acute mouse protection test; format: in vivo; details: Escherichia coli, single dose given at time of challenge, compound B series
E. coli Vogel = experiment: Antibacterial activity, MIC; format: cell-based; details: Escherichia coli, based on content of compound B

With `CCn1cc(C(=O)O)c(=O)c2cc(F)c(N3CCNCC3)cc21` [A acetate] the lyophilization [1] was “cannot be successfully lyophilized”.
For `CCn1cc(C(=O)O)c(=O)c2cc(F)c(N3CCNCC3)nc21` [B acetate], the lyophilization [1] was “cannot be successfully lyophilized”.
For `CCn1cc(C(=O)O)c(=O)c2cc(F)c(N3CCNCC3)nc21` [Compound B L-Glutamic, 1-Ethyl-6-fluoro-1,4-dihydro-4-oxo-7-(1-piperazinyl)-1,8-naphthyridine-3-carboxylic acid L-glutamate], the drug half-life [2] was “no significant difference” and the peak blood level [2] was “no significant difference”.
For `CCn1cc(C(=O)O)c(=O)c2cc(F)c(N3CCNCC3)nc21` [Compound B, 1-ethyl-6-fluoro-1,4-dihydro-4-oxo-7-(1-piperazinyl)-1,8-naphthyridine-3-carboxylic acid, reference compound], the “MIC µg/ml Staph. aureus UC-76” value (Staph. aureus UC-76) was 0.2 µg/mL (≈ 0.624 µM), the “MIC µg/ml Pseudo. aeruginosa UI-18” value (Pseudo. aeruginosa UI-18) was 0.8 µg/mL (≈ 2.5 µM) and the “Single sc Dose PD50 (mg/kg) ± 95% Confidence Limits Klebsiella pneumoniae MGH-2” value [3] was 2.6 ± 0.6 mg/kg. It also gave an MIC (Klebs. pneumoniae MGH-2) of 0.1 µg/mL (≈ 0.312 µM), an MIC (Strep. faecalis MGH-2) of 1.6 µg/mL (≈ 4.99 µM) and an ED50 ([4]; Staphylococcus aureus, UC76, po, oral, read-out: Single po Dose PD50 (mg/kg) ± 95% Confidence Limits Staphylococcus aureus UC-76) of 14 ± 7 mg/kg. For the same molecule, the “Single sc Dose PD50 (mg/kg) ± 95% Confidence Limits Staphylococcus aureus UC-76” value ([4]; subcutaneous) was 7.4 ± 2.2 mg/kg, the MIC (Proteus retgeri M 1771) was 0.1 µg/mL (≈ 0.312 µM) and the MIC (Strep. pneumoniae SV-1) was 3.1 µg/mL (≈ 9.68 µM). The MIC (Staph. aureus H 228) was 3.1 µg/mL (≈ 9.68 µM), the drug half-life [2] was “no significant difference” and the peak blood level [2] was “no significant difference”. The “MIC µg/ml Strep. pyogenes C-203” value (Strep. pyogenes C-203) was 3.1 µg/mL (≈ 9.68 µM), the MIC (Entero cloacae MA 2646) was 0.2 µg/mL (≈ 0.624 µM) and the ED50 (Escherichia coli Vogel; po, read-out: Single po Dose PD50 (mg/kg) ± 95% Confidence Limits Escherichia coli Vogel) was 3.1 ± 0.7 mg/kg. It also gave an ED50 (Escherichia coli Vogel; sc, subcutaneous, read-out: Single sc Dose PD50 (mg/kg) ± 95% Confidence Limits Escherichia coli Vogel) of 1.4 ± 0.4 mg/kg and an MIC (E. coli Vogel) of 0.2 µg/mL (≈ 0.624 µM).
